# Target: GLP-1 Receptor (Homo sapiens, UniProt P43220)
# Experiment: GLP-1R agonist cAMP stimulation assay (HEK293/GLP1R/CRE-LUC cells, Cisbio cAMP dynamic 2 kit)
# Format: cell-based
# Conditions: Table 3, HEK293/GLP1R/CRE-LUC cells, 30 min
# Experimental: Activation of GLP-1 receptor is known to stimulate cyclic AMP (cAMP) production in cells which indicates primary coupling to the G as subunit of the G protein heterotrimeric complex.
# To optimize functional activity directed toward G as coupling, a HEK293/CRE-Luc cell line developed by HDB stably expressing the GLP-1 Receptor was used. 200× concentration of compound working solutions were prepared (Agilent Technologies Bravo) with ½ log serial dilution in 384-well Echo LDV plate (Labcyte, CatOLP-0200). 50 nL/well 200× concentration of compound working solutions were moved to 384-well white low volume plate (Greiner, Cat4784075) using Labcyte ECH0550.1×10^5 cells/mL HEK293/GLP1R/CRE-LUC (HD Biosciences) cell suspensions prepared with assay buffer (DPBS containing 0.5 mM IBMX (Sigma, Cat15879) and 0.10 BSA (GENVIEW, Cat4FA016-100g)), 10 uL cell suspensions were added to each well of previous generated assay plate which already contains 50 n^1 compound at 200 xconcentration using ThermioFisher Multidrop Combi (1000 cells/well). Seal the plate and incubate at 37 with […] for 30 m.
# After incubation the cAMP assay signal was generated using cAMP dynamic 2 Kit (Cisbio). 5 μL cAMP-d2 working solution was added to each well, followed with 5 L Anti-cAMP antibody-cryptate working solution added to each well using ThermoFisher Multidrop Combi. Incubate at room temperature for 1 hour protected from light. Read the fluorescence at 665 and 615 nm with Reader PerkinElmer EnVision. % oActivity=100%×(mean RLU of test sample−mean RLU of vehicle control)/(mean RLU of MAX control−mean RLU of vehicle control)
# Chain of GLP-1 Receptor (P43220 24-463, species assumed): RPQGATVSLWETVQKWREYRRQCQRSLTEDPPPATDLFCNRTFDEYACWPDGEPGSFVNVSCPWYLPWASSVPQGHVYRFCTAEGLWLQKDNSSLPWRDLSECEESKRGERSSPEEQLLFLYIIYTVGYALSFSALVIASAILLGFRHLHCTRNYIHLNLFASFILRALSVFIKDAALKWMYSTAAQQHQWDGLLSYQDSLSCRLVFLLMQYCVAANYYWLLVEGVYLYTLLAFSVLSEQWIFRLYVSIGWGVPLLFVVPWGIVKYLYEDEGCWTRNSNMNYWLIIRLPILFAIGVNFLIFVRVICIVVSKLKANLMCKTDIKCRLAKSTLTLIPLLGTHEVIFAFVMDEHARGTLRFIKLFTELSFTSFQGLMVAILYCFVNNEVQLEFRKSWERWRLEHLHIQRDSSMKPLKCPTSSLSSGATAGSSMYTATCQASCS
row,SMILES,EC50
1,Cc1cc(-n2nc3c(c2-n2ccn(-c4ccc(S(C)(=N)=O)cc4)c2=O)[C@H](C)N(C(=O)c2cn4cc(C5CCOCC5)ccc4c2C2(c4noc(=O)[nH]4)CC2)CC3)cc(C)c1F (some centres unmarked) [Compound 109],0.27 nM
2,"Cc1cc(-n2nc3c(c2-n2ccn(-c4ccc(S(C)(=O)=NC#N)cc4)c2=O)[C@H](C)N(C(=O)c2cc4cc(C5CCOCC5)ccc4n2[C@@]2(c4noc(=O)[nH]4)C[C@@H]2C)CC3)cc(C)c1F (single isomer, unassigned) [Compound 122]",0.046 nM
3,"CC1=Cc2c(ccc(-n3ccn(-c4c5c(nn4-c4cc(C)c(F)c(C)c4)CCN(C(=O)c4cc6cc([C@H]7CCOC(C)(C)C7)ccc6n4[C@@]4(c6noc(=O)[nH]6)C[C@@H]4C)[C@H]5C)c3=O)c2F)S(=O)(C2CC2)=N1 (single isomer, unassigned) [Compound 210]",0.067 nM
4,CN=S1(=O)CCC(Oc2ccc(-n3ccn(-c4c5c(nn4-c4cc(C)c(F)c(C)c4)CCN(C(=O)c4cc6cc([C@H]7CCOC(C)(C)C7)ccc6n4[C@@]4(c6noc(=O)[nH]6)C[C@@H]4C)[C@H]5C)c3=O)cc2C2CC2)CC1 (some centres unmarked) [Compound 237],0.07 nM
5,"CN=S(=O)(c1ccc(-n2ccn(-c3c4c(nn3-c3cc(C)c(Cl)c(C)c3)CCN(C(=O)c3cc5cc([C@H]6CCOC(C)(C)C6)ccc5n3[C@@]3(c5noc(=O)[nH]5)C[C@@H]3C)[C@H]4C)c2=O)c(F)c1)C1CC1 (single isomer, unassigned) [Compound 203]",0.032 nM
6,"CN=S(=O)(c1cc(F)c(-n2ccn(-c3c4c(nn3-c3cc(C)c(F)c(C)c3)CCN(C(=O)c3cc5cc([C@H]6CCOC(C)(C)C6)ccc5n3[C@@]3(c5noc(=O)[nH]5)C[C@@H]3C)[C@H]4C)c2=O)cc1C)C1CC1 (single isomer, unassigned) [Compound 193]",0.1 nM
7,"Cc1cc(-n2ccn(-c3c4c(nn3-c3cc(C)c(F)c(C)c3)CCN(C(=O)c3cc5cc([C@H]6CCOC(C)(C)C6)ccc5n3[C@@]3(c5noc(=O)[nH]5)C[C@@H]3C)[C@H]4C)c2=O)c(F)cc1S(=N)(=O)C1CC1 (single isomer, unassigned) [Compound 190]",0.026 nM
8,"CN=S1(=O)CCC(Oc2ccc(-n3ccn(-c4c5c(nn4-c4cc(C)c(F)c(C)c4)CCN(C(=O)c4cc6cc(C7CCOCC7)ccc6n4[C@@]4(c6noc(=O)[nH]6)C[C@@H]4C)[C@H]5C)c3=O)c(F)c2C)CC1 (single isomer, unassigned) [Compound 233]",0.028 nM
9,"Cc1cc(-n2nc3c(c2-n2ccn(-c4ccc(S(C)(=O)=NC#N)cc4)c2=O)[C@H](C)N(C(=O)c2cc4cc(C5CCOCC5)ccc4n2[C@@]2(c4noc(=O)[nH]4)C[C@@H]2C)CC3)cc(C)c1F (single isomer, unassigned) [Compound 113]",0.035 nM
10,"Cc1cc(-n2nc3c(c2-n2ccn(-c4ccc5c(c4)CCS(C)(=O)=N5)c2=O)[C@H](C)N(C(=O)c2cc4cc([C@H]5CCOC(C)(C)C5)ccc4n2[C@@]2(c4noc(=O)[nH]4)C[C@@H]2C)CC3)cc(C)c1F (single isomer, unassigned) [Compound 228]",0.34 nM
11,"CN=S(=O)(c1ccc(-n2ccn(-c3c4c(nn3-c3cc(C)c(F)c(C)c3)CCN(C(=O)c3cc5cc([C@H]6CCOC(C)(C)C6)ccc5n3[C@@]3(c5noc(=O)[nH]5)C[C@@H]3C)[C@H]4C)c2=O)c(F)c1Cl)C1CC1 (single isomer, unassigned) [Compound 215]",0.074 nM
12,"Cc1cc(-n2nc3c(c2-n2ccn(-c4ccc5c(c4F)CCN=S5(=O)C4CC4)c2=O)[C@H](C)N(C(=O)c2cc4cc([C@H]5CCOC(C)(C)C5)ccc4n2[C@@]2(c4noc(=O)[nH]4)C[C@@H]2C)CC3)cc(C)c1F (single isomer, unassigned) [Compound 198]",0.023 nM
13,"CC[C@H]1C[C@]1(c1noc(=O)[nH]1)n1c(C(=O)N2CCc3nn(-c4cc(C)c(F)c(C)c4)c(-n4ccn(-c5ccc(S(=N)(=O)CC)cc5F)c4=O)c3[C@@H]2C)cc2cc(C3CCOCC3)ccc21 (single isomer, unassigned) [Compound 173]",0.012 nM
14,"CCS(=N)(=O)c1ccc(-n2ccn(-c3c4c(nn3-c3cc(C)c(F)c(C)c3)CCN(C(=O)c3sc5cc(C6CCOCC6)ccc5c3C3(c5noc(=O)[nH]5)CC3)[C@H]4C)c2=O)cc1 (single isomer, unassigned) [Compound 132]",0.98 nM
15,"CN=S1(=O)CCC(Oc2ccc(-n3ccn(-c4c5c(nn4-c4cc(C)c(F)c(C)c4)CCN(C(=O)c4cc6cc(C7CCOCC7)ccc6n4[C@@]4(c6noc(=O)[nH]6)C[C@@H]4C)[C@H]5C)c3=O)cc2C(F)F)CC1 (single isomer, unassigned) [Compound 235]",0.057 nM
16,"Cc1cc(-n2nc3c(c2-n2ccn(-c4ccc(S5(=O)=NCCC5)cc4)c2=O)[C@H](C)N(C(=O)c2cc4cc(C5CCOCC5)ccc4n2C2(c4nsc(=O)[nH]4)CC2)CC3)cc(C)c1F (single isomer, unassigned) [Compound 130]",0.23 nM
17,"Cc1cc(-n2nc3c(c2-n2ccn(-c4ccc(CS(C)(=N)=O)cc4F)c2=O)[C@H](C)N(C(=O)c2cc4cc(C5CCOCC5)ccc4n2[C@@]2(c4noc(=O)[nH]4)C[C@@H]2C)CC3)cc(C)c1F (single isomer, unassigned) [Compound 175]",0.025 nM
18,"Cc1cc(-n2nc3c(c2-n2ccn(-c4ccc(CS(C)(=N)=O)cc4F)c2=O)[C@H](C)N(C(=O)c2cc4cc(C5CCOCC5)ccc4n2[C@@]2(c4noc(=O)[nH]4)C[C@@H]2C)CC3)cc(C)c1F (single isomer, unassigned) [Compound 174]",0.067 nM
19,"Cc1cc(-n2nc3c(c2-n2ccn(-c4ccc5c(c4F)CN=S5(C)=O)c2=O)[C@H](C)N(C(=O)c2cc4cc([C@H]5CCOC(C)(C)C5)ccc4n2[C@@]2(c4noc(=O)[nH]4)C[C@@H]2C)CC3)cc(C)c1F (single isomer, unassigned) [Compound 187]",0.01 nM
20,"Cc1cc(-n2nc3c(c2-n2ccn(-c4ccc5c(c4)C=CS(C)(=O)=N5)c2=O)[C@H](C)N(C(=O)c2cc4cc([C@H]5CCOC(C)(C)C5)ccc4n2[C@@]2(c4noc(=O)[nH]4)C[C@@H]2C)CC3)cc(C)c1F (single isomer, unassigned) [Compound 231]",0.014 nM
21,"CCS(=N)(=O)c1ccc(-n2ccn(-c3c4c(nn3-c3cc(C)c(F)c(C)c3)CCN(C(=O)c3cc5cc(C6CCOCC6)ccc5n3[C@@]3(c5noc(=O)[nH]5)C[C@@H]3C)[C@H]4C)c2=O)c(F)c1 (single isomer, unassigned) [Compound 139]",0.062 nM
22,"Cc1cc(-n2nc3c(c2-n2ccn(-c4ccc5c(c4F)CCN=S5(C)=O)c2=O)[C@H](C)N(C(=O)c2cc4cc([C@H]5CCOC(C)(C)C5)ccc4n2[C@@]2(c4noc(=O)[nH]4)C[C@@H]2C)CC3)cc(C)c1F (single isomer, unassigned) [Compound 185]",0.016 nM
23,"Cc1cc(-n2nc3c(c2-n2ccn(-c4ccc5c(c4F)CN=S5(=O)C4CC4)c2=O)[C@H](C)N(C(=O)c2cc4cc([C@H]5CCOC(C)(C)C5)ccc4n2[C@@]2(c4noc(=O)[nH]4)C[C@@H]2C)CC3)cc(C)c1F (single isomer, unassigned) [Compound 192]",0.02 nM
24,"Cc1cc(-n2nc3c(c2-n2ccn(-c4ccc5c(c4)CCS(C)(=O)=N5)c2=O)[C@H](C)N(C(=O)c2cc4cc([C@H]5CCOC(C)(C)C5)ccc4n2[C@@]2(c4noc(=O)[nH]4)C[C@@H]2C)CC3)cc(C)c1F (single isomer, unassigned) [Compound 229]",0.042 nM
25,"Cc1cc(-n2nc3c(c2-n2ccn(-c4cc5c(cc4F)S(C)(=O)=NC5)c2=O)[C@H](C)N(C(=O)c2cc4cc([C@H]5CCOC(C)(C)C5)ccc4n2[C@@]2(c4noc(=O)[nH]4)C[C@@H]2C)CC3)cc(C)c1F (single isomer, unassigned) [Compound 200]",0.01 nM
26,"COc1cc(-n2ccn(-c3c4c(nn3-c3cc(C)c(F)c(C)c3)CCN(C(=O)c3cc5cc(C6CCOCC6)ccc5n3[C@@]3(c5noc(=O)[nH]5)C[C@@H]3C)[C@H]4C)c2=O)ccc1S(C)(=N)=O (stereo partly drawn) [Compound 123, 3-[(1S,2S)-1-(2-{[(S)-2-(4-fluoro-3,5-xylyl)-3-{3-[4-(iminomethyloxothio)-3-methoxyphenyl]-2-oxo-1,3-dihydro-1-imidazolyl}-4-methyl-4,5,6,7-tetrahydro-2H-1,2,5-triazainden-5-yl]carbonyl}-5-(tetrahydro-2H-pyran-4-yl)-1-indolyl)-2-methylcyclopropyl]-1,2,4-oxadiazol-5(4H)-one]",0.071 nM
27,Cc1cc(-n2nc3c(c2-n2ccn(-c4ccc(S(C)(=N)=O)cc4)c2=O)[C@H](C)N(C(=O)c2cc4cc(N5CCOCC5)ccc4n2C2(c4noc(=O)[nH]4)CC2)CC3)cc(C)c1F (some centres unmarked) [Compound 106],0.67 nM
28,Cc1cc(-n2nc3c(c2-n2ccn(-c4ccc(S(C)(=N)=O)cc4)c2=O)[C@H](C)N(C(=O)c2cc4cc(C5CCOCC5)ccc4n2-c2cccc(S(=O)(=O)Nc4ncccn4)c2)CC3)cc(C)c1F (some centres unmarked) [Compound 119],1 nM
29,"Cc1cc(-n2nc3c(c2-n2ccn(-c4ccc5c(c4F)CN=S5(C)=O)c2=O)[C@H](C)N(C(=O)c2cc4cc([C@H]5CCOC(C)(C)C5)ccc4n2[C@@]2(c4noc(=O)[nH]4)C[C@@H]2C)CC3)cc(C)c1F (single isomer, unassigned) [Compound 188]",0.017 nM

# — patent US12291529B2, “Heterocyclic GLP-1 agonists” (Gasherbrum Bio, Inc., priority 2023, dated 2025)
